Patent US20260176285A1, “SALT OF DIOXANE QUINOLINE COMPOUND, CRYSTAL FORM THEREOF, PREPARATION METHODS THEREFOR AND USES THEREOF” (Beijing Scitech-MQ Pharmaceuticals Limited, priority 2022, published 2026)

How the values were obtained:
[1] = tested on: human lung cancer cells EBC-1; test: Efficacy in nude mouse tumor-bearing model of human lung cancer cells EBC-1; assay type: in vivo, Balb/c nude mouse
How it was run: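 Female BALB/c nude mice bearing subcutaneous EBC-1 xenografts (5×10^6 cells; 150-200 mm^3 at start), 6/group, dosed orally once daily for about 3 weeks at 15 and 7.5 mg/kg (free-base equivalent) in 0.1% CMC-Na. Tumors measured twice weekly; T/C (%) from relative tumor volume versus vehicle.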

[2] = Solid-state stability evaluation (XRPD, HPLC); assay type: physicochemical; details: for Purity / Purity/initial purity: listed as p-Toluenesulfonate salt crystal form A-II
Description: The following 6 test samples were placed under 25° C./60% RH and 40° C./75% RH conditions for 1 week, and then the physical and chemical stability of the samples was tested by XRPD and HPLC.
At the same time, after the p-toluenesulfonate salt crystal form A-II and crystal form B-III solids were placed at 80° C. for 24 hours, the physical and chemical stability of the samples were tested by XRPD and HPLC.

[3] = Hygroscopicity by dynamic moisture sorption (DVS); assay type: physicochemical; details: DVS, listed as p-Toluenesulfonate salt crystal form A-II
How it was run: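 Mass change of salt and free-form crystal samples recorded at 25° C over a 0% RH-95% RH-0% RH cycle. Steps were 10% RH (last step 5%) with a dm/dt equilibrium criterion of 0.002%/min.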

[4] = Dynamic solubility in water, SGF, FaSSIF and FeSSIF; assay type: physicochemical; parameters: S (dynamic solubility): unit not given here; details: listed as p-Toluenesulfonate salt crystal form A-II; for S (dynamic solubility): 37° C., feed 10 mg/mL
How it was run: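 Free form and salt crystal forms tested over time in water, SGF (pH 1.8), FaSSIF (pH 6.5) and FeSSIF (pH 5.0), simulated fluids made with SIF powder. At each time point samples were centrifuged, passed through 0.45 μm PTFE, and filtrate concentration (HPLC) and pH measured.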

SMILES: O=C(Nc1ccc(F)cc1)C1(C(=O)Nc2ccc(Oc3ccnc4cc(OCCCN5CCOCC5)c5c(c34)OCCO5)c(F)c2)CC1 [Example 2, N-(3-fluoro-4-((5-(3-morpholinopropoxy)-2,3-dihydro-[1,4]dioxano[2,3-f]quinolin-10-yl)oxy)phenyl)-N-(4-fluorophenyl)cyclopropane-1,1-dicarboxamide]
- T/C (relative tumor proliferation rate) ([1]; 7.5 mg/kg oral once a day, day 7): 61.3%
- T/C (relative tumor proliferation rate) ([1]; 7.5 mg/kg oral once a day, day 10): 47.4%
- T/C (relative tumor proliferation rate) ([1]; 7.5 mg/kg oral once a day, day 14): 40.3%
- T/C (relative tumor proliferation rate) ([1]; 7.5 mg/kg oral once a day, day 18): 37.7%
- T/C (relative tumor proliferation rate) ([1]; 7.5 mg/kg oral once a day, day 21): 33.1%
- T/C (relative tumor proliferation rate) ([1]; 15 mg/kg oral once a day, day 3): 67.9%
- T/C (relative tumor proliferation rate) ([1]; 15 mg/kg oral once a day, day 7): 37.3%
- T/C (relative tumor proliferation rate) ([1]; 15 mg/kg oral once a day, day 10): 25.4%
- T/C (relative tumor proliferation rate) ([1]; 15 mg/kg oral once a day, day 14): 17.5%
- T/C (relative tumor proliferation rate) ([1]; 15 mg/kg oral once a day, day 18): 16.0%
- T/C (relative tumor proliferation rate) ([1]; 15 mg/kg oral once a day, day 21): 12.09%
- Purity ([2]; 25° C./60% RH, 1 week): 99.52 area %
- Purity/initial purity ([2]; 25° C./60% RH, 1 week): 100.1%
- Purity/initial purity ([2]; 40° C./75% RH, 1 week): 100.0%
- Change of Crystal form ([2]; 80° C., 24 hours): no
- Purity ([2]; 80° C., 24 hours): 99.42 area %
- Moisture adsorption (25° C./80% RH) ([3]; 25° C./80% RH): 0.52%
- Hygroscopicity ([3]; 25° C.): Slightly
- S (dynamic solubility) ([4]; FaSSIF, 1 hour): 0.073
- pH of the filtrate ([4]; FaSSIF, 1 hour): 6.1
- S (dynamic solubility) ([4]; FaSSIF, 2 hours): 0.066
- pH of the filtrate ([4]; FaSSIF, 2 hours): 6.1
- S (dynamic solubility) ([4]; FaSSIF, 4 hours): 0.059
- pH of the filtrate ([4]; FaSSIF, 4 hours): 6.1
- S (dynamic solubility) ([4]; FaSSIF, 24 hours): 0.072
- pH of the filtrate ([4]; FaSSIF, 24 hours): 5.1
- S (dynamic solubility) ([4]; FeSSIF, 1 hour): 1.8
- pH of the filtrate ([4]; FeSSIF, 1 hour): 5.0
- S (dynamic solubility) ([4]; FeSSIF, 2 hours): 2.0
- pH of the filtrate ([4]; FeSSIF, 2 hours): 5.0
- S (dynamic solubility) ([4]; FeSSIF, 4 hours): 1.5
- pH of the filtrate ([4]; FeSSIF, 4 hours): 5.0
- S (dynamic solubility) ([4]; FeSSIF, 24 hours): 0.84
- pH of the filtrate ([4]; FeSSIF, 24 hours): 5.0
- S (dynamic solubility) ([4]; H2O, 1 hour): 2.7
- pH of the filtrate ([4]; H2O, 1 hour): 4.8
- S (dynamic solubility) ([4]; H2O, 2 hours): 2.7
- pH of the filtrate ([4]; H2O, 2 hours): 4.9
- S (dynamic solubility) ([4]; H2O, 4 hours): 2.8
- pH of the filtrate ([4]; H2O, 4 hours): 4.7
- S (dynamic solubility) ([4]; H2O, 24 hours): 2.5
- pH of the filtrate ([4]; H2O, 24 hours): 4.2
- S (dynamic solubility) ([4]; SGF, 1 hour): 6.8
- pH of the filtrate ([4]; SGF, 1 hour): 2.3
- S (dynamic solubility) ([4]; SGF, 2 hours): completely dissolved
- S (dynamic solubility) ([4]; SGF, 4 hours): completely dissolved
- S (dynamic solubility) ([4]; SGF, 24 hours): 6.3
- pH of the filtrate ([4]; SGF, 24 hours): 2.3
